Results on 33 compounds are retold here after patent publication US7323469B2, “7H-pyrrolo[2,3-d]pyrimidine derivatives” (Novartis AG, priority 2001, dated 2008).

Consider `CCN1CCN(Cc2ccc(-c3cc4c(NCc5ccnc(OC)c5)ncnc4[nH]3)cc2)CC1` [Example 122, (2-Methoxy-pyridin-4-ylmethyl)-{6-[4-(4-ethyl-piperazin-1-ylmethyl)-phenyl]-7H-pyrrolo[2,3-d]pyrimidin-4-yl}-amine], for which the melting point (as a rule, the temperature of the solid-liquid transition) fell in the range of 210 to 212 °C.
`Clc1ccccc1CNc1ncnc2[nH]c(-c3ccc(CN4CCCC4)cc3)cc12` [Example 95, (2-Chloro-benzyl)-[6-(4-pyrrolidin-1-ylmethyl-phenyl)-7H-pyrrolo[2,3-d]pyrimidin-4-yl]-amine] returned a melting point of 264 to 265 °C.
`C[C@@H](Nc1ncnc2[nH]c(-c3cccc(CN4CCOCC4)c3)cc12)c1ccccc1` [Example 31, [6-(3-Morpholin-4-ylmethyl-phenyl)-7H-pyrrolo[2,3-d]pyrimidin-4-yl]-((R)-1-phenyl-ethyl)-amine] showed a melting point of 242 to 243 °C.
`CN(C)Cc1ccc(-c2cc3c(NCc4ccccc4Cl)ncnc3[nH]2)cc1` [Example 90, (2-Chloro-benzyl)-[6-(4-dimethylaminomethyl-phenyl)-7H-pyrrolo[2,3-d]pyrimidin-4-yl]-amine] showed a melting point of 256 to 258 °C.
In the case of `Clc1ccccc1CNc1ncnc2[nH]c(-c3ccc(CN4CCCCC4)cc3)cc12` [Example 92, (2-Chloro-benzyl)-[6-(4-piperidin-1-ylmethyl-phenyl)-7H-pyrrolo[2,3-d]pyrimidin-4-yl]-amine] it was 262 to 264 °C.
`CC1CN(Cc2ccc(-c3cc4c(Nc5ccc(OCc6ccccc6)cc5)ncnc4[nH]3)cc2)CC(C)N1` (stereo not drawn) [Example 24, (4-Benzyloxy-phenyl)-{6-[4-(3,5-dimethyl-piperazin-1-ylmethyl)-phenyl]-7H-pyrrolo[2,3-d]pyrimidin-4-yl}-amine] came in with a melting point of 269 to 271 °C.
As to `C[C@@H](Nc1ncnc2[nH]c(-c3cccc(CN4CCN(C)CC4)c3)cc12)c1ccccc1` [Example 29, {6-[3-(4-Methyl-piperazin-1-ylmethyl)-phenyl]-7H-pyrrolo[2,3-d]pyrimidin-4-yl}-((R)-1-phenyl-ethyl)-amine], the melting point is 112 to 115 °C.
Compound `CC1CN(Cc2ccc(-c3cc4c(N[C@H](C)c5ccccc5)ncnc4[nH]3)cc2)CC(C)N1` (stereo partly drawn) [Example 16, {6-[4-(3,5-Dimethyl-piperazin-1-ylmethyl)-phenyl]-7H-pyrrolo[2,3-d]pyrimidin-4-yl}-((R)-1-phenyl-ethyl)-amine] registered a melting point of 208 to 210 °C.
Compound `CCN1CCN(Cc2ccc(-c3cc4c(NCc5ccccc5Cl)ncnc4[nH]3)cc2)CC1` [Example 91, (2-Chloro-benzyl)-{6-[4-(4-ethyl-piperazin-1-ylmethyl)-phenyl]-7H-pyrrolo[2,3-d]pyrimidin-4-yl}-amine] returned a melting point of 255 to 256 °C.
As for `O=C(CN1CCCCC1)NCc1ccc(-c2cc3c(Nc4ccc(OCc5ccccc5)cc4)ncnc3[nH]2)cc1` [Example 53, N-{4-[4-(4-Benzyloxy-phenylamino)-7H-pyrrolo[2,3-d]pyrimidin-6-yl]-benzyl}-2-piperidin-1-yl-acetamide], the melting point lay in the range of 246 to 248 °C.
In the case of `CCN(CC)Cc1ccc(-c2cc3c(NCc4cc(Cl)ccc4Cl)ncnc3[nH]2)cc1` [Example 101, (2,5-Dichloro-benzyl)-[6-(4-diethylaminomethyl-phenyl)-7H-pyrrolo[2,3-d]pyrimidin-4-yl]-amine] it was 255 to 257 °C; in that of `CCN(CC)Cc1ccc(-c2cc3c(Nc4ccc(OCc5ccccc5)cc4)ncnc3[nH]2)cc1` [Example 21, (4-Benzyloxy-phenyl)-[6-(4-diethylaminomethyl-phenyl)-7H-pyrrolo[2,3-d]pyrimidin-4-yl]-amine], 271 to 273 °C; in that of `CN1CCN(Cc2ccc(-c3cc4c(Nc5cccc(Cl)c5)ncnc4[nH]3)cc2)CC1.Cl.Cl`, 227 to 229 °C.
`CN1CCN(CC(=O)NCc2ccc(-c3cc4c(Nc5ccc(F)c(Cl)c5)ncnc4[nH]3)cc2)CC1` [Example 50, N-{4-[4-(3-Chloro-4-fluoro-phenylamino)-7H-pyrrolo[2,3-d]pyrimidin-6-yl]-benzyl}-2-(4-methyl-piperazin-1-yl)-acetamide] yielded a melting point of 246 to 249 °C.
In the case of `Fc1ccc(Nc2ncnc3[nH]c(-c4cccc(CN5CCCCC5)c4)cc23)cc1Cl` [Example 38, (3-Chloro-4-fluoro-phenyl)-[6-(3-piperidin-1-ylmethyl-phenyl)-7H-pyrrolo[2,3-d]pyrimidin-4-yl]-amine] it was 233 to 235 °C; in that of `c1ccc(COc2ccc(Nc3ncnc4[nH]c(-c5ccc(CN6CCOCC6)cc5)cc34)cc2)cc1` [Example 20, (4-Benzyloxy-phenyl)-[6-(4-morpholin-4-ylmethyl-phenyl)-7H-pyrrolo[2,3-d]pyrimidin-4-yl]-amine], 272 to 274 °C.
For `Fc1ccc(Nc2ncnc3[nH]c(-c4cccc(CN5CCCC5)c4)cc23)cc1Cl` [Example 36, (3-Chloro-4-fluoro-phenyl)-[6-(3-pyrrolidin-1-ylmethyl-phenyl)-7H-pyrrolo[2,3-d]pyrimidin-4-yl]-amine], the melting point was 238 to 240 °C.
For `C[C@@H](Nc1ncnc2[nH]c(-c3ccc(CNC(C)(C)C)cc3)cc12)c1ccccc1` [Example 16d, {6-[4-(tert-Butylamino-methyl)-phenyl]-7H-pyrrolo[2,3-d]pyrimidin-4-yl}-((R)-1-phenyl-ethyl)-amine], the melting point was above 300 °C.
The compound `CCN(CC)CCC(=O)NCc1ccc(-c2cc3c(Nc4ccc(F)c(Cl)c4)ncnc3[nH]2)cc1` [Example 58, N-{4-[4-(3-Chloro-4-fluoro-phenylamino)-7H-pyrrolo[2,3-d]pyrimidin-6-yl]-benzyl}-3-diethylamino-propionamide] yielded a melting point of 229 to 232 °C.
In the case of `COc1cccc(CNc2ncnc3[nH]c(-c4ccc(CN5CCOCC5)cc4)cc23)c1` [Example 107a, (3-Methoxy-benzyl)-[6-(4-morpholin-4-ylmethyl-phenyl)-7H-pyrrolo[2,3-d]pyrimidin-4-yl]-amine] it was 263 to 265 °C; in that of `CCN1CCN(Cc2ccc(-c3cc4c(NCc5cc[nH]c(=O)c5)ncnc4[nH]3)cc2)CC1` [Example 129, 4-({6-[4-(4-Ethyl-piperazin-1-ylmethyl)-phenyl]-7H-pyrrolo[2,3-d]pyrimidin-4-ylamino}-methyl)-1H-pyridin-2-one], 291 to 292 °C; in that of `O=C(CN1CCCCC1)NCc1ccc(-c2cc3c(Nc4ccc(F)c(Cl)c4)ncnc3[nH]2)cc1` [Example 49, N-{4-[4-(3-Chloro-4-fluoro-phenylamino)-7H-pyrrolo[2,3-d]pyrimidin-6-yl]-benzyl}-2-piperidin-1-yl-acetamide], 229 to 232 °C.
In the case of `COc1ccc(Nc2ncnc3[nH]c(-c4ccc(CN5CCN(C)CC5)cc4)cc23)cn1` [Example 112, (6-Methoxy-pyridin-3-yl)-{6-[4-(4-methyl-piperazin-1-ylmethyl)-phenyl]-7H-pyrrolo[2,3-d]pyrimidin-4-yl}-amine] it was 241 to 242 °C; in that of `CC1CN(Cc2cccc(-c3cc4c(N[C@H](C)c5ccccc5)ncnc4[nH]3)c2)CC(C)N1` (stereo partly drawn) [Example 32, {6-[3-(3,5-Dimethyl-piperazin-1-ylmethyl)-phenyl]-7H-pyrrolo[2,3-d]pyrimidin-4-yl}-((R)-1-phenyl-ethyl)-amine], 128 to 130 °C; in that of `CN(C)Cc1ccc(-c2cc3c(NCc4cc(Cl)ccc4Cl)ncnc3[nH]2)cc1` [Example 98, (2,5-Dichloro-benzyl)-[6-(4-dimethylaminomethyl-phenyl)-7H-pyrrolo[2,3-d]pyrimidin-4-yl]-amine], 254 to 257 °C.
As to `Clc1ccc(Cl)c(CNc2ncnc3[nH]c(-c4ccc(CN5CCOCC5)cc4)cc23)c1` [Example 99, (2,5-Dichloro-benzyl)-[6-(4-morpholin-4-ylmethyl-phenyl)-7H-pyrrolo[2,3-d]pyrimidin-4-yl]-amine], the melting point is 272 to 274 °C.
Compound `O=C(NCc1ccc(-c2cc3c(Nc4ccc(F)c(Cl)c4)ncnc3[nH]2)cc1)c1ccccn1` [Example 59, Pyridine-2-carboxylic acid 4-[4-(3-chloro-4-fluoro-phenylamino)-7H-pyrrolo[2,3-d]pyrimidin-6-yl]-benzylamide] returned a melting point of 340 to 342 °C.
The compound `CCN1CCN(Cc2ccc(-c3cc4c(Nc5ccc(OCc6ccccc6)cc5)ncnc4[nH]3)cc2)CC1` [Example 22, (4-Benzyloxy-phenyl)-{6-[4-(4-ethyl-piperazin-1-ylmethyl)-phenyl]-7H-pyrrolo[2,3-d]pyrimidin-4-yl}-amine] displayed a melting point of 256 to 258 °C.
In turn, `CN(C)Cc1ccc(-c2cc3c(Nc4ccc(OCc5ccccc5)cc4)ncnc3[nH]2)cc1` [Example 17, (4-Benzyloxy-phenyl)-[6-(4-dimethylaminomethyl-phenyl)-7H-pyrrolo[2,3-d]pyrimidin-4-yl]-amine] returned a melting point of 272 to 274 °C.
As for `C[C@@H](Nc1ncnc2[nH]c(-c3ccc(CNC(=O)CN4CCOCC4)cc3)cc12)c1ccccc1` [Example 42, 2-Morpholin-4-yl-N-{4-[4-((R)-1-phenyl-ethyl-amino)-7H-pyrrolo[2,3-d]pyrimidin-6-yl]-benzyl}-acetamide], the melting point lay in the range of 199 to 202 °C.
In turn, `c1ccc(COc2ccc(Nc3ncnc4[nH]c(-c5ccc(CN6CCCCC6)cc5)cc34)cc2)cc1` [Example 19, (4-Benzyloxy-phenyl)-[6-(4-piperidin-1-ylmethyl-phenyl)-7H-pyrrolo[2,3-d]pyrimidin-4-yl]-amine] returned a melting point of 256 to 258 °C.
In the case of `Cc1cccc(CNc2ncnc3[nH]c(-c4ccc(CN5CCOCC5)cc4)cc23)c1` [Example 107e, (3-Methyl-benzyl)-[6-(4-morpholin-4-ylmethyl-phenyl)-7H-pyrrolo[2,3-d]pyrimidin-4-yl]-amine] it was 259 to 261 °C.
In the case of `C[C@@H](Nc1ncnc2[nH]c(-c3ccc(CN4CCNCC4)cc3)cc12)c1ccccc1` [Example 145, ((R)-1-Phenyl-ethyl)-[6-(4-piperazin-1-ylmethyl-phenyl)-7H-pyrrolo[2,3-d]pyrimidin-4-yl]-amine] it was 240 to 242 °C.
